ChEMBL document CHEMBL1138823, “Diaminopyrimidine and diaminopyridine 5-HT7 ligands” (Bioorg Med Chem Lett, 2004)

Columns and labels:
[1] = target: 5-hydroxytryptamine receptor 7 (Homo sapiens, UniProt P34969); experiment: Binding affinity against 5-Hydroxy tryptamine 7 receptor
[2] = target: D(2) dopamine receptor (Homo sapiens, UniProt P14416); experiment: Binding affinity against D2L receptor
[3] = target: 5-hydroxytryptamine receptor 2C (Rattus norvegicus) (UniProt P08909); experiment: Binding affinity against 5-Hydroxy tryptamine 2C receptor
[4] = target: Adrenergic receptor alpha-1 (Rattus norvegicus); experiment: Binding affinity against Alpha1 adrenergic receptor

5-hydroxytryptamine receptor 2C (Rattus norvegicus), sequence (P08909 whole entry, looked up): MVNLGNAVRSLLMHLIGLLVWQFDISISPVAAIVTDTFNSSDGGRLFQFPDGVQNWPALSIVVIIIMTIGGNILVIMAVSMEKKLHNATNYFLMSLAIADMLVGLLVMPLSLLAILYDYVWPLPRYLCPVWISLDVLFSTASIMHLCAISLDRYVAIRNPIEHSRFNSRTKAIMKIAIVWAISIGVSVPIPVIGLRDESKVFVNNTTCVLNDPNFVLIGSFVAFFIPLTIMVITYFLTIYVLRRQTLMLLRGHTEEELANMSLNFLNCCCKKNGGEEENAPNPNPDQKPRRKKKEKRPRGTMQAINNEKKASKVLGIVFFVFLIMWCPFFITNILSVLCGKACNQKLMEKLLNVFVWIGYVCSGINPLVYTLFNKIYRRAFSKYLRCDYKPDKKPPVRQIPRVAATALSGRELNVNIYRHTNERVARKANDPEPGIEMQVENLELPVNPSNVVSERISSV
5-hydroxytryptamine receptor 7, sequence (P34969 whole entry): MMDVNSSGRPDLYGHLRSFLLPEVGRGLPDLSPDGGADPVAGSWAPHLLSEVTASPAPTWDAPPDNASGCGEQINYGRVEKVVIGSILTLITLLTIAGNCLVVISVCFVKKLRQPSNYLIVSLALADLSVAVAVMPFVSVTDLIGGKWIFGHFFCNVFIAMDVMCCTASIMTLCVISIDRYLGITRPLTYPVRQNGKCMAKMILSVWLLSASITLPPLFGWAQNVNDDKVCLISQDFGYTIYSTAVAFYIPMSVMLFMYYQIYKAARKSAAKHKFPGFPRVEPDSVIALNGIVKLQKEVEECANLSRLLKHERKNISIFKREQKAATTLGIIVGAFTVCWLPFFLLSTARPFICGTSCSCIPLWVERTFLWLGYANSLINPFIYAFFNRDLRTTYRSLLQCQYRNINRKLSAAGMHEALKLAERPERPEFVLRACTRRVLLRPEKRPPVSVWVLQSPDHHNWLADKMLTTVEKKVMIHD
D(2) dopamine receptor, sequence (P14416 whole entry): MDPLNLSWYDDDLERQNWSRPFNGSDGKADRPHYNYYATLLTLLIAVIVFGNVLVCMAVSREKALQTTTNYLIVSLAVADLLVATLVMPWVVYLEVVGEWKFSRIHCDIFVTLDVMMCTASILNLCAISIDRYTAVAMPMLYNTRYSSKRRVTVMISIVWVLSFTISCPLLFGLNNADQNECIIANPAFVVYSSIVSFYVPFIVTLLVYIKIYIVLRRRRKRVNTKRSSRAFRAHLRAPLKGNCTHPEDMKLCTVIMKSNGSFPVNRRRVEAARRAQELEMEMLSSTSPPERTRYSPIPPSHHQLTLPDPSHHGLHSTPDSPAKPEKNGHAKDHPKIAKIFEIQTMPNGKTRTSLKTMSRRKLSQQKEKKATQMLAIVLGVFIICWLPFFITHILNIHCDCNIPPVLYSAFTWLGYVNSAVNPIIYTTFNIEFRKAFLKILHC

Row | Ki [1] | Ki [2] | Ki [3] | Ki [4] | SMILES
1 | > 1000 nM |  |  |  | C[C@H](Nc1cccc(NCCc2ccccc2)c1)c1ccccc1
2 | 16 nM |  |  |  | C[C@H](Nc1cncc(NCCc2ccc(F)cc2)c1)c1ccccc1
3 | 5 nM |  |  |  | C[C@H](Nc1cc(NCCOc2ccc(F)cc2)ncn1)c1ccccc1
4 | 0.6 nM |  |  |  | C[C@H](Nc1ccnc(NCCc2ccccc2)n1)c1ccccc1
5 | 0.4 nM |  |  |  | C[C@H](Nc1ccnc(NCCOc2ccccc2)c1)c1ccccc1
6 | 0.4 nM |  |  |  | C[C@H](Nc1ccnc(NCCc2ccc(F)cc2)c1)c1ccccc1
7 | > 1000 nM |  |  |  | C[C@H](Nc1cccc(NCCc2ccccc2)n1)c1ccccc1
8 | 1 nM | > 1000 nM | 40 nM | 57 nM | CC(Nc1nccc(NCCOc2ccc(F)cc2)n1)c1ccccc1 (racemic)
9 | 0.4 nM | > 1000 nM | 13 nM |  | C[C@H](Nc1cc(NCCOc2ccc(F)cc2)ccn1)c1ccccc1
10 | 3 nM |  |  |  | C[C@H](Nc1cc(NCCc2ccccc2)ccn1)c1ccccc1
11 | 4 nM | > 1000 nM | 476 nM |  | C[C@H](Nc1cncc(NCCOc2ccc(F)cc2)c1)c1ccccc1
12 | > 1000 nM |  |  |  | C[C@H](Nc1cccc(NCCOc2ccccc2)n1)c1ccccc1
13 | 33 nM |  |  |  | C[C@H](Nc1cc(NCCc2ccccc2)ncn1)c1ccccc1
14 | > 1000 nM |  |  |  | C[C@H](Nc1cccc(NCCOc2ccccc2)c1)c1ccccc1
15 | 2 nM |  |  |  | C[C@H](Nc1ccnc(NCCOc2ccccc2)n1)c1ccccc1
16 | 0.3 nM | > 1000 nM |  |  | C[C@H](Nc1ccnc(NCCOc2ccc(F)cc2)n1)c1ccccc1
17 | 0.2 nM | 370 nM | 15 nM |  | C[C@H](Nc1ccnc(NCCOc2ccc(F)cc2)c1)c1ccccc1
18 | 4 nM |  |  |  | C[C@H](Nc1cncc(NCCOc2ccccc2)c1)c1ccccc1
19 | 5 nM |  |  |  | C[C@H](Nc1cc(NCCc2ccc(F)cc2)ncn1)c1ccccc1
20 | 6 nM |  |  |  | CC(Nc1ccnc(NCCc2ccc(F)cc2)n1)c1ccccc1 (racemic)
21 | 6 nM |  |  |  | CC(Nc1nccc(NCCc2ccccc2)n1)c1ccccc1 (racemic)
22 | 0.4 nM |  |  |  | C[C@H](Nc1cc(NCCOc2ccccc2)ccn1)c1ccccc1
23 | 4 nM |  |  |  | C[C@H](Nc1cc(NCCc2ccc(F)cc2)ccn1)c1ccccc1
24 | 0.3 nM |  |  |  | C[C@H](Nc1ccnc(NCCc2ccccc2)c1)c1ccccc1
25 | 13 nM |  |  |  | C[C@H](Nc1cncc(NCCc2ccccc2)c1)c1ccccc1
